Measured values published in patent US7517891B2, “Camptothecin derivatives and improved synthetic methods” (Glyconix Corporation, priority 2005, dated 2009).

melting point: 172 to 176 °C (dec.)
SMILES: CC[C@@]1(OC(=O)CCCBr)C(=O)OCc2c1cc1n(c2=O)Cc2c-1nc1ccccc1c2CO
